In US10266526B2, “Substituted 1,2,3-triazoles as SMYD inhibitors for treating cancer” (EPIZYME, INC., priority 2014, dated 2019):

These molecules were tested against SMYD3 (Homo sapiens (Human), UniProt Q9H7B4) (assay: SMYD3 biochemical assay (SMYD3 enzyme assay on MEKK2 protein substrate, 3H-SAM scintillation proximity assay)). Conditions: Table 1A; average of n = 1 to n = 50; read-out: SMYD3 Biochem IC50.
Source text: S-adenosylmethionine (SAM), S-adenosylhomocysteine (SAH), Tris, Tween20, dimethylsulfoxide (DMSO), bovine skin gelatin (BSG), and Tris(2-carboxyethyl)phosphine hydrochloride solution (TCEP) were purchased from Sigma-Aldrich at the highest level of purity possible. ^3H-SAM was purchase from American Radiolabeled Chemicals with a specific activity of 80 Ci/mmol. 384-well opaque white OptiPlates and SPA beads (Perkin Elmer, catalog # RPNQ0013) were purchased from PerkinElmer.
N-terminally GST-tagged MEKK2 (MAP3K2) protein corresponding to reference sequence AAF63496.3 was purchased from Life Technologies (catalog # PV4010). This protein was expressed in High Five insect cells and purified to >85% purity. Protein identity was confirmed by MS/MS analysis after proteolytic digestion. The protein sequence used was:
Full-length human SMYD3 isoform 1 (BAB86333) was inserted into a modified pET21b plasmid containing a His6 tag and TEV and SUMO cleavage sites.
E. coli (BL21 codonplus RIL strain, Stratagene) were transformed with plasmid pEPZ553 by mixing competent cells and plasmid DNA and incubating on ice for 30 minutes followed by heat shock at 42° C. for 1 minute and cooling on ice for 2 minutes. Transformed cells were grown and selected on LB agar with 100 μg/mL ampicillin and 17 μg/mL chloramphenicol at 37° C. overnight. A single clone was used to inoculate 200 mL of LB medium with 100 μg/mL ampicillin and 17 μg/mL chloramphenicol and incubated at 37° C. on an orbital shaker at 180 rpm. Once in log growth, the culture was diluted 1:100 into 2 L of LB medium and grown until OD600 was about 0.3 after which the culture was incubated at 15° C. and 160 rpm. Once OD600 reached about 0.4, IPTG was added to a final concentration of 0.1 mM and the cells were grown overnight at 15° C. and 160 rpm. Cells were harvested by centrifugation at 8000 rpm, for 4 minutes at 4° C. and stored at −80° C. for purification.
The column was washed with Buffer B (Buffer A plus 20 mM imidazole) and His-tagged SMYD3 was eluted with Buffer C (Buffer A plus 300 mM imidazole). The His tag, TEV and SUMO cleavage sites were removed generating native SMYD3 by addition of ULP1 protein at a ratio of 1:200 (ULP1:SMYD3). Imidazole was removed by dialysis overnight in Buffer A. The dialyzed solution was applied to a second Nickel column and the native SMYD3 protein was collected from the column flow-through. The flow-through was dialyzed in Buffer D (25 mM Tris, 5% glycerol, 5 mM β-mercaptoethanol, 50 mM NaCl, pH7.8) and ULP1 was removed using a Q sepharose fast flow column.
General Procedure for SMYD3 Enzyme Assays on MEKK2 Protein Substrate
The assays were all performed in a buffer consisting of 25 mM Tris-Cl pH 8.0, 1 mM TCEP, 0.005% BSG, and 0.005% Tween 20, prepared on the day of use. […] DMSO (1 ul) was added to Columns 11, 12, 23, 24, rows A-H for the maximum signal control and 1 ul of SAH, a known product and inhibitor of SMYD3, was added to columns 11, 12, 23, 24, rows I-P for the minimum signal control. A cocktail (40 ul) containing the SMYD3 enzyme was added by Multidrop Combi (Thermo-Fisher). The compounds were allowed to incubate with SMYD3 for 30 min at room temperature, then a cocktail (10 ul) containing SAM and MEKK2 was added to initiate the reaction (final volume=51 ul). […] The assays were stopped by the addition of non-radiolabeled SAM (10 ul) to a final concentration of 100 uM, which dilutes the ^3H-SAM to a level where its incorporation into MEKK2 is no longer detectable. Radiolabeled MEKK2 was detected using a scintillation proximity assay (SPA). 10 uL of a 10 mg/mL solution of SPA beads in 0.5 M citric acid was added and the plates centrifuged at 600 rpm for 1 min to precipitate the radiolabeled MEKK2 onto the SPA beads.

Sequence of SMYD3 (Q9H7B4 whole entry): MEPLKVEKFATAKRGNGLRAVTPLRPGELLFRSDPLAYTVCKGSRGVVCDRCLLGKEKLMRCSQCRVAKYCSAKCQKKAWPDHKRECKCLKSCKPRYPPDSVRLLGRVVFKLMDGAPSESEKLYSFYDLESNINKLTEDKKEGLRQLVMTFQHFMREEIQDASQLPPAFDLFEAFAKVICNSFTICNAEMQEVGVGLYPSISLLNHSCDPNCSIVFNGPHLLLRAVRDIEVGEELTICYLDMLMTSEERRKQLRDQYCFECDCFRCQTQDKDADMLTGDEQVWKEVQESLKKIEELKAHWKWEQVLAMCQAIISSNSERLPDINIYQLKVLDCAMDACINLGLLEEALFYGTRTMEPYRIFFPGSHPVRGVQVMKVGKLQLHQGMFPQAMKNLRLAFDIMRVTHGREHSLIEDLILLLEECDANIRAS

Row | IC50 | SMILES
1 | > 10 µM | C[C@@H]1C[C@@H](NC(=O)c2ccccc2)CCN1S(=O)(=O)CCCN (racemic) [compound 563, (±)-trans-N-(1-((3-aminopropyl)sulfonyl)-2-methylpiperidin-4-yl)benzamide]
2 | > 50 µM | CC(NC(=O)c1nc2ccncc2s1)C1CCN(C(=O)[C@H](C)N)CC1 (stereo partly drawn) [compound 551, N-(1-(1-(L-alanyl)piperidin-4-yl)ethyl)thiazolo[5,4-c]pyridine-2-carboxamide]
3 | > 10 µM | NCCCC(=O)N1CCC(NC(=O)c2ncn[nH]2)CC1 [Cpd. No. 560, N-(1-(4-aminobutanoyl)piperidin-4-yl)-1H-1,2,4-triazole-5-carboxamide]
4 | > 50 µM | N[C@H]1CC[C@H](NC(=O)c2nc3ccncc3s2)CC1 [compound 533, N-((1r,4r)-4-aminocyclohexyl)thiazolo[5,4-c]pyridine-2-carboxamide]
5 | > 50 µM | Cc1n[nH]c(C(=O)NC(C)C2CCN(C(=O)[C@H](C)N)CC2)n1 (stereo partly drawn) [compound 549, N-(1-(1-(L-alanyl)piperidin-4-yl)ethyl)-3-methyl-1H-1,2,4-triazole-5-carboxamide]

Same assay, conditions: read-out: SMYD3 Biochem IC50

Row | IC50 | SMILES
6 | 51 µM | CC(NC(=O)c1nc2ccc(F)cc2s1)C1CCN(C(=O)[C@H](C)N)CC1 (stereo partly drawn) [compound 498, N-(1-(1-(L-alanyl)piperidin-4-yl)ethyl)-6-fluorobenzo[d]thiazole-2-carboxamide]
7 | > 100 µM | CC(NC(=O)c1cncs1)C1CCN(C(=O)[C@H](C)N)CC1 (stereo partly drawn) [compound 309, N-(1-(1-(L-alanyl)piperidin-4-yl)ethyl)thiazole-5-carboxamide]
8 | > 100 µM | CC(NC(=O)c1n[nH]c2ccccc12)C1CCN(C(=O)[C@H](C)N)CC1 (stereo partly drawn) [compound 312, N-(1-(1-(L-alanyl)piperidin-4-yl)ethyl)-1H-indazole-3-carboxamide]
9 | > 100 µM | NCCC(=O)N[C@H]1CC[C@H](NC(=O)c2ccc(Cl)cc2C(F)(F)F)CC1 [compound 439, N-((1r,4r)-4-(3-aminopropanamido)cyclohexyl)-4-chloro-2-(trifluoromethyl)benzamide]
10 | > 100 µM | NCCC(=O)N[C@H]1CC[C@H](NC(=O)Cc2cncnc2)CC1 [compound 364, 3-amino-N-((1r,4r)-4-(2-(pyrimidin-5-yl)acetamido)cyclohexyl)propanamide]
11 | 11.2 µM | NCCC(=O)N[C@H]1CC[C@H](NC(=O)c2ccc3c(c2)CCCC3)CC1 [compound 203, N-((1r,4r)-4-(3-aminopropanamido)cyclohexyl)-5,6,7,8-tetrahydronaphthalene-2-carboxamide]
12 | > 100 µM | Cc1cnccc1C(=O)NC(C)C1CCN(C(=O)[C@H](C)N)CC1 (stereo partly drawn) [compound 254, N-(1-(1-(L-alanyl)piperidin-4-yl)ethyl)-3-methylisonicotinamide]
13 | > 100 µM | N[C@H]1CC[C@H](NC(=O)c2ccc(O)nn2)CC1 [compound 271, N-((1r,4r)-4-aminocyclohexyl)-6-hydroxypyridazine-3-carboxamide]
14 | > 100 µM | Cc1cnccc1C(=O)N[C@H]1CC[C@H](NC(=O)CCN)CC1 [compound 379, N-((1r,4r)-4-(3-aminopropanamido)cyclohexyl)-3-methylisonicotinamide]
15 | > 100 µM | Cc1ncc(C(=O)N[C@H]2CC[C@H](N)CC2)cn1 [compound 320, N-((1r,4r)-4-aminocyclohexyl)-2-methylpyrimidine-5-carboxamide]
16 | > 100 µM | Cc1n[nH]c(C)c1C(=O)N[C@H]1CC[C@H](N)CC1 [compound 182, N-((1r,4r)-4-aminocyclohexyl)-3,5-dimethyl-1H-pyrazole-4-carboxamide]
17 | > 100 µM | CC(NC(=O)Cc1cccnc1)C1CCN(C(=O)[C@H](C)N)CC1 (stereo partly drawn) [compound 314, N-(1-(1-(L-alanyl)piperidin-4-yl)ethyl)-2-(pyridin-3-yl)acetamide]
18 | > 100 µM | NCCC(=O)N[C@H]1CC[C@H](NC(=O)c2ccc(N)cn2)CC1 [compound 437, 5-amino-N-((1r,4r)-4-(3-aminopropanamido)cyclohexyl)picolinamide]
19 | > 100 µM | COc1cccc2[nH]cc(C(=O)N[C@H]3CC[C@H](N)CC3)c12 [compound 372, N-((1r,4r)-4-aminocyclohexyl)-4-methoxy-1H-indole-3-carboxamide]
20 | > 100 µM | N[C@H]1CC[C@H](NC(=O)c2ccc3nonc3c2)CC1 [compound 287, N-((1r,4r)-4-aminocyclohexyl)benzo[c][1,2,5]oxadiazole-5-carboxamide]
21 | 41.7 µM | CC(NC(=O)c1cc2cc(F)ccc2[nH]1)C1CCN(C(=O)[C@H](C)N)CC1 (stereo partly drawn) [compound 198, N-(1-(1-(L-alanyl)piperidin-4-yl)ethyl)-5-fluoro-1H-indole-2-carboxamide]
22 | 86.6 µM | NCCC(=O)N[C@H]1CC[C@H](NC(=O)c2nc3ccccc3[nH]2)CC1 [compound 374, N-((1r,4r)-4-(3-aminopropanamido)cyclohexyl)-1H-benzo[d]imidazole-2-carboxamide]
23 | > 100 µM | N[C@H]1CC[C@H](NC(=O)c2cncs2)CC1 [compound 359, N-((1r,4r)-4-aminocyclohexyl)thiazole-5-carboxamide]

Same assay, conditions: read-out: SMYD3 Biochem IC50 (μM)*

Row | IC50 | SMILES
24 | 37.3 µM | NCCC(=O)N[C@H]1CC[C@H](NC(=O)c2ccc(-c3ccccc3)cc2)CC1 [compound 154, N-((1r,4r)-4-(3-aminopropanamido)cyclohexyl)-[1,1′-biphenyl]-4-carboxamide]
25 | 13.6 µM | C[C@H](N)C(=O)N1CC[C@H](CNC(=O)c2ccc3c(c2)CC(=O)N3)C1 [compound 135, N-(((R)-1-(L-alanyl)pyrrolidin-3-yl)methyl)-2-oxoindoline-5-carboxamide]
26 | > 100 µM | N[C@H]1CC[C@H](NC(=O)Cc2cccnc2)CC1 [compound 129, N-((1r,4r)-4-aminocyclohexyl)-2-(pyridin-3-yl)acetamide]
27 | 2.84 µM | N[C@H]1CC[C@H](NC(=O)c2ccc3c(c2)CC(=O)N3)CC1 [compound 40, N-((1r,4r)-4-aminocyclohexyl)-2-oxoindoline-5-carboxamide]
28 | 146 µM | CC(NC(=O)c1ccc2cc(N)ccc2c1)C1CCN(C(=O)[C@H](C)N)CC1 (stereo partly drawn) [compound 97, N-(1-(1-(L-alanyl)piperidin-4-yl)ethyl)-6-amino-2-naphthamide]
29 | > 100 µM | CC(NC(=O)c1nccc2ccccc12)C1CCN(C(=O)[C@H](C)N)CC1 (stereo partly drawn) [compound 171, N-(1-(1-(L-alanyl)piperidin-4-yl)ethyl)isoquinoline-1-carboxamide]
30 | 15.5 µM | NCCC(=O)N[C@H]1CC[C@H](NC(=O)c2ccc3cnccc3c2)CC1 [compound 165, N-((1r,4r)-4-(3-aminopropanamido)cyclohexyl)isoquinoline-6-carboxamide]
31 | > 100 µM | CC(=O)Nc1ccc(S(=O)(=O)N2CCC(NC(=O)c3cc[nH]n3)CC2)cc1 [compound 6, N-(1-((4-acetamidophenyl)sulfonyl)piperidin-4-yl)-1H-pyrazole-3-carboxamide]
32 | 69.2 µM | CCn1nc(C)cc1C(=O)NC(c1ccccc1)C1CCNCC1 (stereo not shown) [compound 30, 1-ethyl-3-methyl-N-(phenyl(piperidin-4-yl)methyl)-1H-pyrazole-5-carboxamide]
33 | 102 µM | N[C@H]1CC[C@H](NC(=O)c2ccc3c(c2)OCC(=O)N3)CC1 [compound 19, N-((1r,4r)-4-aminocyclohexyl)-3-oxo-3,4-dihydro-2H-benzo[b][1,4]oxazine-7-carboxamide]
34 | 65.7 µM | CC1(CNC(=O)c2ccc3c(c2)CC(=O)N3)CCNCC1 [compound 121, N-((4-methylpiperidin-4-yl)methyl)-2-oxoindoline-5-carboxamide]
